In patent US20230248706A1, “METHODS AND COMPOSITIONS FOR THE TREATMENT OF COVID-19 AND ASSOCIATED RESPIRATORY DISTRESS AND MULTI-ORGAN FAILURE, SEPSIS, ACUTE RESPIRATORY DISTRESS SYNDROME, AND CARDIOVASCULAR DISEASES” (priority 2020, published 2023):

Columns and labels:
pro-inflammatory genes = format: in vivo, mouse; conditions: aged mice (21 mo. old), 25 mg/kg oral at 24h post-LPS (FIG. 13 legend)
Description: (§1) Molecular analysis. Total RNA was isolated using an RNeasy Mini kit including DNase I digestion (Qiagen, Valencia, Calif.). Following reverse transcription, quantitative RT-PCR analysis was performed using a sequence detection system (ABI ViiA 7 system; Life Technologies, Grand Island, N.Y.). The following primers sets were used for analysis: mouse FoxM1 primers, 5′-[…]-3′ (SEQ ID NO: 1) and 5′-[…]-3′ (SEQ ID NO: 2); mouse cyclophilin primers, 5′-[…]-3′ (SEQ ID NO: 3) and 5′-[…]-3′ (SEQ ID NO: 4). Primers for mouse Cdc25c, Ccna2, Ccnb1, Tnf, Il6, Nos2, and Icam1 were purchased from Qiagen. The mouse gene expression was normalized to cyclophilin.

LPS-challenged mice [1] = assay: EBA extravasation assay (lung vascular permeability) after LPS challenge; format: in vivo, mouse; conditions: for vascular repair (EBA flux): 72h post-LPS; for vascular repair (EBA assay): 96h post-LPS
Description: (§2) To induce endotoxemia, mice received a single dose of LPS (0.25-2.5 mg/kg BW, Escherichia coli 055:B5, Santa Cruz, St. Dallas, Tex.) by i.p. injection. The LPS dose was dependent on the aging of the mice (3-9 mo old, 2.5 mg/kg; 19-21 mo. old, 1.0 mg/kg; 25 mo. old, 0.25 mg/kg). All mice were anesthetized with ketamine/xylazine (100/5 mg/kg BW, i.p.) prior to tissue collection. For the survival study, mice were treated with a single dose of LPS (1.5 mg/kg, i.p.) and monitored for 7 days.
Vascular permeability assessment. The Evans blue dye-conjugated albumin (EBA) extravasation assay was performed as previously described (26, 34). Briefly, mice were retro-orbitally injected with EBA at a dose of 20 mg/kg BW at 30 minutes prior to tissue collection. Lungs were perfused free of blood with PBS, blotted dry and weighed. Next, lung tissues were homogenized in 1 ml PBS and incubated with 2 volumes of formamide at 60° C. for 18 hours. The homogenates were then centrifuged at 10,000×g for 30 minutes. The optical density of the supernatant was determined at 620 nm and 740 nm. The extravasated EBA in lung homogenate was presented as μg of Evans blue dye per g lung tissue.

FoxM1 = assay: Quantitative RT-PCR of FoxM1 expression in lung after LPS challenge; format: in vivo, mouse
Description: as §1

LPS-challenged mice [2] = assay: Lung myeloperoxidase (MPO) activity after LPS challenge; format: in vivo, mouse
Description: as §2
Myeloperoxidase assay. Following perfusion free of blood, lung tissues were collected and homogenized in 50 mmol/L phosphate buffer. Homogenates were centrifuged at 15,000×g for 20 minutes at 4° C. The pellets were resuspended in phosphate buffer containing 0.5% hexadecyl trimethylammonium bromide and subjected to a cycle of freezing and thawing. Subsequently, the pellets were homogenized and the homogenates were centrifuged again. Absorbance was measured at 460 nm every 15 secs for 3 minutes and data expressed as ΔOD460/min/g lung tissue (26, 34).

p53 = conditions: in response to DNA damaging agents; cited from earlier work
NADase = conditions: cited from earlier work
HDAC = conditions: cited from earlier work
[3] = test system: human lung microvascular ECs (HLMVECs); assay: ROS production (DCF staining) in senescent HLMVECs treated with TNF-α/CHX; conditions: senescent HLMVECs at passage 16, TNF-α and Cycloheximide (CHX) treatment
Description: (§3) (D) Quantification of ROS production. (E) Representative micrographs of TUNEL staining (green) of human lung ECs.
(§4) To further understand the pathogenic role of aging-induced NOX2 in promoting inflammatory lung injury in aged mice, we cultured human lung microvascular ECs (HLMVECs) and passaged many times.

IL-6 = assay: Quantitative RT-PCR of IL-6 expression in lung after LPS challenge; format: in vivo, mouse
Description: as §1

[4] = test system: human lung microvascular ECs (HLMVECs); assay: Apoptosis (TUNEL) in senescent HLMVECs treated with TNF-α/CHX; conditions: senescent HLMVECs at passage 16
Description: as §3, §4

[5] = cited from earlier work
HIF-response element = assay: High-throughput screening of Prestwick library in stable cell line containing the HIF-response element; format: cell-based; conditions: Prestwick Chemical Library of FDA-approved drugs (1280 compounds)
TNF-α = assay: Quantitative RT-PCR of TNF-α expression in lung after LPS challenge; format: in vivo, mouse; conditions: aged mice (21 mo. old), DMOG at 12 or 24h post-LPS, 72h post-LPS
Description: as §1

Cdc25c, Ccna2, and Ccnb1 = assay: Quantitative RT-PCR of FoxM1 target genes essential for cell cycle progression in lung; format: in vivo, mouse; conditions: aged mice, treated at 24 and 48h post-LPS
Description: as §1

pulmonary vascular ECs = assay: In vivo BrdU labeling of lung endothelial cell proliferation; set-up: species or system mouse; conditions: aged mice, treated at 24 and 48h post-LPS
Description: Cell proliferation. At 8 h prior to tissue collection, BrdU (Sigma-Aldrich, St Louis, Mo.) was injected i.p. into mice at 50 mg/kg BW. Mouse lung cryosections were stained overnight with anti-BrdU (1:3, BD Biosciences, San Jose, Calif.) and incubated with Alexa Fluo 488-conjugated secondary antibody (1:200, Life Technologies, Grand Island, N.Y.). Lung vascular ECs were immunostained with anti-vWF (1:300, Sigma-Aldrich, St Louis, Mo.) and anti-CD31 (1:100, BD Biosciences, San Jose, Calif.) antibodies at 4° C. then the sections were incubated with Alexa Fluor 594-conjugated secondary antibodies (1:200, Life Technologies, Grand Island, N.Y.). The nuclei were counterstained with DAPI (Life Technologies, Grand Island, N.Y.). Three consecutive cryosections from each mouse lung were examined, the average number of BrdU+ nuclei was used (24, 34).

young adult mice = conditions: 1 mg/kg i.p., young adult mice (8-10 weeks old), previous study; cited from earlier work
LPS-challenged mice [6] = assay: Survival after LPS challenge; format: in vivo, mouse; conditions: LPS 1.5 mg/kg i.p., treated at 24 and 48h post-LPS
Description: To induce endotoxemia, mice received a single dose of LPS (0.25-2.5 mg/kg BW, Escherichia coli 055:B5, Santa Cruz, St. Dallas, Tex.) by i.p. injection. […] All mice were anesthetized with ketamine/xylazine (100/5 mg/kg BW, i.p.) prior to tissue collection. […]

[7] = aged mice (21 mo. old), LPS 0.5 mg/kg i.p., 25 mg/kg oral at 24h post-LPS, 72h post-LPS
[8] = aged WT mice (20 months), 7 mg/kg i.p. at 1 h prior to LPS, 72h post-LPS
[9] = aged mice (21.5 mos. old), LPS 2 mg/kg i.p., 120 mg/kg oral at 2 h post-LPS, 24h post-LPS
[10] = aged mice (21 mo. old), DMOG 8 mg/mouse i.p. at 12 or 24h post-LPS, 72h post-LPS
[11] = young adult mice (3-5 mo. old), LPS 2.5 mg/kg i.p., 0.25, 0.5, and 5 mg/kg i.p. at 4h post-LPS, 24h post-LPS

Cc1nc(C(=O)NCC(=O)O)c(O)c2ccc(Oc3ccccc3)cc12 [FG-4592]
pro-inflammatory cytokine expression (pro-inflammatory genes): marked increase | vascular repair (EBA flux) (LPS-challenged mice [1]; aged mice (21 mo. old), LPS 0.5 mg/kg i.p., 25 mg/kg oral at 24h post-LPS): normalized vascular repair | FoxM1 expression (FoxM1; [7]): induced FoxM1 expression | MPO activity (LPS-challenged mice [2]; [7]): inhibited MPO activity

NC(=O)C1CCCc2c1[nH]c1ccc(Cl)cc21 (centres unmarked) [Selisistat]
p53 acetylation (p53): Enhances | FoxM1 expression (FoxM1; [8]): reactivated FoxM1 expression | lung MPO activity (LPS-challenged mice [2]; [8]): returned to basal levels | IC50 (NADase): > 100 µM | IC50 (HDAC): > 100 µM

CC(=O)N[C@@H](CS)C(=O)O [NAC, N-Acetylcysteine]
ROS generation [3]: inhibited | MPO activity (LPS-challenged mice [2]; [9]): attenuated | expression of the proinflammatory gene 116 (IL-6; [9]): reduced to a level similar to young adult mice | TNF-α/CHX treatment-induced cell apoptosis [4]: markedly inhibited

Oc1ccc(/C=C/c2cc(O)cc(O)c2)cc1 [Resveratrol, trans-E-resveratrol]
solubility [5]: poor solubility

Cl.Nc1ccc(/N=N/c2ccccc2)c(N)n1 [Phenazopyridine]
HIF activation in library screen (HIF-response element): activators | vascular repair (EBA flux) (LPS-challenged mice [1]; aged mice (22 mo. old), LPS 1.5 mg/kg i.p., treated at 6h and 24h post-LPS): promote vascular repair

COCCCOc1ccnc(C[S+]([O-])c2nc3ccccc3[nH]2)c1C (centres unmarked) [Rabeprazole]
HIF activation in library screen (HIF-response element): activators | drug-induced vascular repair (EBA) in Foxm1 EC KO mice (LPS-challenged mice [1]; Foxm1 EC-specific knockout mice (3-5 mos. old), treated at 6h and 24h post-LPS, 52h post-LPS): inhibited | drug-induced vascular repair (EBA) in Hif1a KO mice (LPS-challenged mice [1]; Hif1a EC-specific knockout mice (4 mos. old), treated at 6h and 24h post-LPS, 52h post-LPS): inhibited | increase of FoxM1 expression compared to either basal or LPS-treated mice (FoxM1; aged mice (22 mo. old), treated at 6h and 24h post-LPS, 72h post-LPS): 3-6 fold | increase of FoxM1 expression compared to either basal or LPS-treated mice (FoxM1; young adult mice 3-5 mos. old, 18 mg/kg oral at 6h and 24h post-LPS, 56h post-LPS): 3 fold | MPO activity (LPS-challenged mice [2]; aged mice (22 mo. old), LPS 1.5 mg/kg i.p., treated at 6h and 24h post-LPS, 72h post-LPS): returned to levels seen in basal mice

COC(=O)CNC(=O)C(=O)OC [DMOG, dimethyoxalylglycine]
increase of FoxM1 expression compared to either basal or non-treated mice (FoxM1; [10]): 3 fold | MPO activity (LPS-challenged mice [2]; [10]): returned to basal levels | expression of TNF-α (TNF-α): markedly reduced | expression of IL-6 (IL-6; aged mice (21 mo. old), DMOG at 12 or 24h post-LPS, 72h post-LPS): markedly reduced

Nc1ncn([C@H]2CC(O)[C@@H](CO)O2)c(=O)n1 (stereo in doubt) [Decitabine, 5-Aza-2′-deoxycytidine]
expression of FoxM1 target genes essential for cell cycle progression (Cdc25c, Ccna2, and Ccnb1): markedly induced | vascular repair (EBA assay) (LPS-challenged mice [1]; aged mice (21-22 mos. old), 0.2 mg/kg i.p. at 24 h and 48h post-LPS): normalized vascular repair | lung EBA flux (LPS-challenged mice [1]; [11]): no effect | vascular repair (EBA assay) (LPS-challenged mice [1]; young adult mice (3 mos. old), 0.2 mg/kg i.p. at 24 and 48h post-LPS): didn't promote | pulmonary vascular EC proliferation (BrdU immunostaining) (pulmonary vascular ECs): drastically increased | FoxM1 expression (FoxM1; aged mice, treated at 24 and 48h post-LPS, 72h post-LPS, compared to vehicle-treated mice): markedly induced | effect on sepsis-induced inflammatory lung injury (young adult mice): no effects | mice survived (LPS-challenged mice [6]; aged (20-22 mos. old) WT mice, monitored for 96h): 80% | survival of aged Foxm1 KO mice (LPS-challenged mice [6]; aged Foxm1 EC-specific knockout mice): no protective effects | lung MPO activity (LPS-challenged mice [2]; aged mice (21-22 mos. old), 0.2 mg/kg i.p. at 24 h and 48h post-LPS, 96h post-LPS): returned to basal levels | lung MPO activity (LPS-challenged mice [2]; [11]): no effect | inflammation resolution (MPO assay) (LPS-challenged mice [2]; young adult mice (3 mos. old), 0.2 mg/kg i.p. at 24 and 48h post-LPS, 96h post-LPS): didn't promote
